Results taken from the supplement of paper PMC10307832.

What was measured:
Test in all cases: relative viability (nuclei count vs DMSO), 5 days (fraction); higher = more cells survive
NCI-H23 = tested on: NCI-H23
How it was run: (§1)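 Dosing by pin tool came one day after lung cancer cell lines were seeded in 1536-well plates, using either one drug or a fixed anchor-drug dose plus five library-drug doses (not always all listed) in √10 steps. After 5 days, nuclei were counted on 4× images. Relative viability is treated-well nuclei count divided by vehicle-well nuclei count, and values are medians of duplicate plates.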

EMC-BAC-2 = tested on: EMC-BAC-2
How it was run: as §1

NCI-H1915 = tested on: NCI-H1915
How it was run: as §1

A-427 = tested on: A-427
How it was run: as §1

NCI-H1437 = tested on: NCI-H1437
How it was run: as §1

HARA = tested on: HARA
How it was run: as §1

NCI-H1395 = tested on: NCI-H1395
How it was run: as §1

SW 1573 = tested on: SW 1573
How it was run: as §1

SK-LU-1 = tested on: SK-LU-1
How it was run: as §1

HCC-827 = tested on: HCC-827
How it was run: as §1

NCI-H460 = tested on: NCI-H460
How it was run: as §1

CC(=O)O[C@@]12CO[C@@H]1C[C@H](O)[C@@]1(C)C(=O)[C@H](O)C3=C(C)[C@@H](OC(=O)[C@H](O)[C@@H](NC(=O)OC(C)(C)C)c4ccccc4)C[C@@](O)([C@@H](OC(=O)c4ccccc4)[C@H]21)C3(C)C [Docetaxel] + C[C@]1(O)C[C@@H](c2nc(-c3ccc4ccc(-c5ccccc5)nc4c3)c3c(N)nccn32)C1 [Linsitinib] (partner 1 µM)
relative viability (NCI-H23; first compound 0.0002 µM): 0.579
relative viability (NCI-H23; first compound 0.000632 µM): 0.572
relative viability (NCI-H23; first compound 0.002 µM): 0.465
relative viability (NCI-H23; first compound 0.006325 µM): 0.22
relative viability (NCI-H23; first compound 0.02 µM): 0.126
relative viability (EMC-BAC-2; first compound 0.0002 µM): 0.799
relative viability (EMC-BAC-2; first compound 0.000632 µM): 0.665
relative viability (EMC-BAC-2; first compound 0.002 µM): 0.463
relative viability (EMC-BAC-2; first compound 0.006325 µM): 0.31
relative viability (EMC-BAC-2; first compound 0.02 µM): 0.207
relative viability (NCI-H1915; first compound 0.0002 µM): 1.07
relative viability (NCI-H1915; first compound 0.000632 µM): 1.06
relative viability (NCI-H1915; first compound 0.002 µM): 0.724
relative viability (NCI-H1915; first compound 0.006325 µM): 0.239
relative viability (NCI-H1915; first compound 0.02 µM): 0.156
relative viability (A-427; first compound 0.0002 µM): 1.09
relative viability (A-427; first compound 0.000632 µM): 1.12
relative viability (A-427; first compound 0.002 µM): 1.02
relative viability (A-427; first compound 0.02 µM): 0.227
relative viability (NCI-H1437; first compound 0.0002 µM): 0.964
relative viability (NCI-H1437; first compound 0.000632 µM): 0.805
relative viability (NCI-H1437; first compound 0.006325 µM): 0.124
relative viability (NCI-H1437; first compound 0.02 µM): 0.0906
relative viability (HARA; first compound 0.0002 µM): 0.739
relative viability (HARA; first compound 0.000632 µM): 0.482
relative viability (HARA; first compound 0.002 µM): 0.235
relative viability (HARA; first compound 0.006325 µM): 0.0978
relative viability (HARA; first compound 0.02 µM): 0.0632
relative viability (NCI-H1395; first compound 0.0002 µM): 1.05
relative viability (NCI-H1395; first compound 0.000632 µM): 1.19
relative viability (NCI-H1395; first compound 0.002 µM): 0.787
relative viability (NCI-H1395; first compound 0.006325 µM): 0.431
relative viability (NCI-H1395; first compound 0.02 µM): 0.336
relative viability (SW 1573; first compound 0.0002 µM): 0.804
relative viability (SW 1573; first compound 0.000632 µM): 0.594
relative viability (SW 1573; first compound 0.002 µM): 0.279
relative viability (SW 1573; first compound 0.006325 µM): 0.276
relative viability (SW 1573; first compound 0.02 µM): 0.178
relative viability (SK-LU-1; first compound 0.0002 µM): 0.899
relative viability (SK-LU-1; first compound 0.000632 µM): 0.437
relative viability (SK-LU-1; first compound 0.002 µM): 0.406
relative viability (SK-LU-1; first compound 0.006325 µM): 0.344
relative viability (SK-LU-1; first compound 0.02 µM): 0.232
relative viability (HCC-827; first compound 0.0002 µM): 0.971
relative viability (HCC-827; first compound 0.000632 µM): 0.927
relative viability (HCC-827; first compound 0.002 µM): 0.892
relative viability (HCC-827; first compound 0.006325 µM): 0.438
relative viability (HCC-827; first compound 0.02 µM): 0.347
relative viability (NCI-H460; first compound 0.0002 µM): 0.715
relative viability (NCI-H460; first compound 0.000632 µM): 0.153
